Measurements: ChEMBL document CHEMBL1123974, “A comprehensive method for determining hydrophobicity constants by reversed-phase high-performance liquid chromatography” (J Med Chem, 1988)

What was measured:
[1] = octanol/water
physchem = conditions: octanol/water

Structure (SMILES) | Log k' w [1] | logP (physchem)
Oc1ccc(F)cc1 | 1.575 | 
N#Cc1cccc([N+](=O)[O-])c1 | 1.014 | 1.17
Nc1ccc(Br)cc1 [4-BROMOANILINE] | 2.043 | 
c1ccc(/N=N/c2ccccc2)cc1 [AZOBENZENE] | 3.961 | 3.82
Nc1cccc(F)c1 | 1.225 | 1.3
Oc1cccc(F)c1 | 1.749 | 
Oc1ccccc1 [PHENOL] | 1.251 | 
CC12CCC(C(=O)C1=O)C2(C)C (centres undefined) | 1.42 | 1.52
c1ccc2[nH]ccc2c1 [INDOLE] | 2.014 | 2.14
Cc1ccc(O)cc1 [p-CRESOL] | 1.759 | 
Oc1cccc(O)c1 [RESORCINOL] | 0.544 | 
N#Cc1cccc(O)c1 | 1.557 | 1.7
N#Cc1ccccc1 [BENZONITRILE] | 1.279 | 
COc1ccc(O)cc1 [MEQUINOL] | 1.004 | 
Oc1ccc(I)cc1 | 2.795 | 
CCc1cccc(O)c1 | 2.228 | 2.4

Structure (SMILES) | Log k' w [1] | logP (physchem)
COc1ccccc1 [ANISOLE] | 2.006 | 
COc1cccc(O)c1 [1-hydroxy-3-methoxybenzene] | 1.254 | 
O=[N+]([O-])c1ccccc1 [NITROBENZENE] | 1.633 | 
Cc1ccc(C(C)C)c(O)c1 [THYMOL] | 3.092 | 
Oc1cccc(C(F)(F)F)c1 | 2.847 | 
COc1ccc(CO)cc1 | 0.815 | 1.1
CC(=O)Nc1ccc(Br)cc1 | 2.293 | 2.29
COc1ccc([N+](=O)[O-])cc1 | 1.857 | 
O=[N+]([O-])c1ccc(Cl)cc1 | 2.165 | 2.3
Nc1cccc2ccccc12 | 2.203 | 
Oc1ccc(Cl)cc1 [PARACHLOROPHENOL] | 2.31 | 
Oc1cccc(Cl)c1 | 2.391 | 
Nc1ccc(Cl)cc1 [4-CHLOROANILINE] | 1.855 | 1.83
Cc1ccc(N)cc1 | 1.405 | 
COc1ccc(N)cc1 | 0.603 | 0.95
CC(=O)c1ccccc1 [ACETOPHENONE] | 1.359 | 
